Key:
[1] = The drug is tested on Bifidobacterium longum subsp. Infantis strain: CCUG52486 for biotransformation. The drug concentrations were measured before and after a 12-h incubation by liquid-chromatography-coupled mass spectrometry (LC–MS); details: 2 µM
[2] = The drug is tested on Bifidobacterium ruminantium strain: fecal isolate for biotransformation. The drug concentrations were measured before and after a 12-h incubation by liquid-chromatography-coupled mass spectrometry (LC–MS); details: 2 µM
[3] = The drug is tested on Collinsella aerofaciens strain: ATCC25986 for biotransformation. The drug concentrations were measured before and after a 12-h incubation by liquid-chromatography-coupled mass spectrometry (LC–MS); details: 2 µM
[4] = The drug is tested on Collinsella intestinalis strain: DSM13280 for biotransformation. The drug concentrations were measured before and after a 12-h incubation by liquid-chromatography-coupled mass spectrometry (LC–MS); details: 2 µM
[5] = The drug is tested on Bacteroides caccae strain: ATCC43185 for biotransformation. The drug concentrations were measured before and after a 12-h incubation by liquid-chromatography-coupled mass spectrometry (LC–MS); details: 2 µM
[6] = The drug is tested on Bacteroides coprophilus strain: DSM18228 for biotransformation. The drug concentrations were measured before and after a 12-h incubation by liquid-chromatography-coupled mass spectrometry (LC–MS); details: 2 µM
[7] = The drug is tested on Bacteroides finegoldii strain: DSM17565 for biotransformation. The drug concentrations were measured before and after a 12-h incubation by liquid-chromatography-coupled mass spectrometry (LC–MS); details: 2 µM
[8] = The drug is tested on Bacteroides fragilis strain: HMW615 for biotransformation. The drug concentrations were measured before and after a 12-h incubation by liquid-chromatography-coupled mass spectrometry (LC–MS); details: 2 µM
[9] = The drug is tested on Bacteroides ovatus strain: ATCC8483 for biotransformation. The drug concentrations were measured before and after a 12-h incubation by liquid-chromatography-coupled mass spectrometry (LC–MS); details: 2 µM
[10] = The drug is tested on Bacteroides pectinophilus strain: ATCC43243 for biotransformation. The drug concentrations were measured before and after a 12-h incubation by liquid-chromatography-coupled mass spectrometry (LC–MS); details: 2 µM
[11] = The drug is tested on Bacteroides uniformis strain: ATCC8492 for biotransformation. The drug concentrations were measured before and after a 12-h incubation by liquid-chromatography-coupled mass spectrometry (LC–MS); details: 2 µM
[12] = The drug is tested on Bacteroides sp. WH2 strain: WH2 for biotransformation. The drug concentrations were measured before and after a 12-h incubation by liquid-chromatography-coupled mass spectrometry (LC–MS); details: bacteroides sp. wh2, 12 h, 2 µM
[13] = The drug is tested on Bacteroides xylanisolvens strain: DSM18836 for biotransformation. The drug concentrations were measured before and after a 12-h incubation by liquid-chromatography-coupled mass spectrometry (LC–MS); details: 2 µM
[14] = The drug is tested on Odoribacter splanchnicus strain: fecal isolate for biotransformation. The drug concentrations were measured before and after a 12-h incubation by liquid-chromatography-coupled mass spectrometry (LC–MS); details: 2 µM
[15] = The drug is tested on Anaerococcus hydrogenalis strain: DSM7454 for biotransformation. The drug concentrations were measured before and after a 12-h incubation by liquid-chromatography-coupled mass spectrometry (LC–MS); details: 2 µM
[16] = The drug is tested on Anaerotruncus colihominis strain: DSM17241 for biotransformation. The drug concentrations were measured before and after a 12-h incubation by liquid-chromatography-coupled mass spectrometry (LC–MS); details: 2 µM
[17] = The drug is tested on Blautia luti strain: DSM14534 for biotransformation. The drug concentrations were measured before and after a 12-h incubation by liquid-chromatography-coupled mass spectrometry (LC–MS); format: ADME; parameters: dose 2 uM, timepoint 0 vs 12 hours; details: 2 µM
[18] = The drug is tested on Clostridium hathewayi strain: DSM13479 for biotransformation. The drug concentrations were measured before and after a 12-h incubation by liquid-chromatography-coupled mass spectrometry (LC–MS); details: hungatella hathewayi, 2 µM
[19] = The drug is tested on Clostridium ramosum strain: DSM1402 for biotransformation. The drug concentrations were measured before and after a 12-h incubation by liquid-chromatography-coupled mass spectrometry (LC–MS); details: thomasclavelia ramosa, 2 µM
[20] = The drug is tested on Clostridium spiroforme strain: DSM1552 for biotransformation. The drug concentrations were measured before and after a 12-h incubation by liquid-chromatography-coupled mass spectrometry (LC–MS); details: thomasclavelia spiroformis, 2 µM
[21] = The drug is tested on Coprococcus comes strain: ATCC27758 for biotransformation. The drug concentrations were measured before and after a 12-h incubation by liquid-chromatography-coupled mass spectrometry (LC–MS); format: ADME; parameters: dose 2 uM, timepoint 0 vs 12 hours; details: 2 µM
[22] = The drug is tested on Dorea formicigenerans strain: ATCC27755 for biotransformation. The drug concentrations were measured before and after a 12-h incubation by liquid-chromatography-coupled mass spectrometry (LC–MS); details: 2 µM
[23] = The drug is tested on Enterococcus faecalis strain: V583 for biotransformation. The drug concentrations were measured before and after a 12-h incubation by liquid-chromatography-coupled mass spectrometry (LC–MS); details: 2 µM
[24] = The drug is tested on Eubacterium hallii strain: DSM3353 for biotransformation. The drug concentrations were measured before and after a 12-h incubation by liquid-chromatography-coupled mass spectrometry (LC–MS); details: anaerobutyricum hallii, 2 µM
[25] = The drug is tested on Eubacterium rectale strain: ATCC33656 for biotransformation. The drug concentrations were measured before and after a 12-h incubation by liquid-chromatography-coupled mass spectrometry (LC–MS); details: agathobacter rectalis, 2 µM
[26] = The drug is tested on Eubacterium ventriosum strain: ATCC27560 for biotransformation. The drug concentrations were measured before and after a 12-h incubation by liquid-chromatography-coupled mass spectrometry (LC–MS); format: ADME; parameters: dose 2 uM, timepoint 0 vs 12 hours; details: 2 µM
[27] = The drug is tested on Ruminococcus gnavus strain: ATCC29149 for biotransformation. The drug concentrations were measured before and after a 12-h incubation by liquid-chromatography-coupled mass spectrometry (LC–MS); details: mediterraneibacter gnavus, 2 µM
[28] = The drug is tested on Ruminococcus torques strain: ATCC27756 for biotransformation. The drug concentrations were measured before and after a 12-h incubation by liquid-chromatography-coupled mass spectrometry (LC–MS); format: ADME; parameters: dose 2 uM, timepoint 0 vs 12 hours; details: 2 µM
[29] = The drug is tested on Edwardsiella tarda strain: ATCC23685 for biotransformation. The drug concentrations were measured before and after a 12-h incubation by liquid-chromatography-coupled mass spectrometry (LC–MS); details: 2 µM
[30] = The drug is tested on Providencia rettgeri strain: DSM1131 for biotransformation. The drug concentrations were measured before and after a 12-h incubation by liquid-chromatography-coupled mass spectrometry (LC–MS); format: ADME; parameters: dose 2 uM, timepoint 0 vs 12 hours; details: 2 µM
[31] = The drug is tested on Providencia stuartii strain: ATCC25827 for biotransformation. The drug concentrations were measured before and after a 12-h incubation by liquid-chromatography-coupled mass spectrometry (LC–MS); details: 2 µM
[32] = bifidobacterium adolescentis, 12 h, 2 µM
[33] = bacteroides eggerthii, 12 h, 2 µM
[34] = bacteroides intestinalis, 12 h, 2 µM
[35] = bacteroides stercoris, 12 h, 2 µM
[36] = bacteroides thetaiotaomicron, 12 h, 2 µM
[37] = parabacteroides distasonis, 12 h, 2 µM
[38] = parabacteroides johnsonii, 12 h, 2 µM
[39] = segatella copri, 12 h, 2 µM
[40] = anaerostipes sp., 12 h, 2 µM
[41] = enterocloster bolteae, 12 h, 2 µM
[42] = limosilactobacillus reuteri cf48-3a, 12 h, 2 µM
[43] = roseburia intestinalis, 12 h, 2 µM
[44] = akkermansia muciniphila, 12 h, 2 µM

Measured: Bacterial Biotransformation

C=C[C@H]1CN2CC[C@H]1C[C@H]2[C@H](O)c1ccnc2ccc(OC)cc12.C=C[C@H]1CN2CC[C@H]1C[C@H]2[C@H](O)c1ccnc2ccc(OC)cc12.O.O.O=S(=O)(O)O [QUININE SULFATE]
Compound NOT metabolized: [1] | [2] | [3] | [4] | [5] | [6] | [7] | [8] | [9] | [10] | [11] | [12] | [13] | [14] | [15] | [16] | [17] | [18] | [19] | [20] | [21] | [22] | [23] | [24] | [25] | [26] | [27] | [28] | [29] | [30] | [31] | [32] | [33] | [34] | [35] | [36] | [37] | [38] | [39] | [40] | [41] | [42] | [43] | [44]
